Usually share remaining stands for the share of the starting amount still present when the sample was taken. In general, microsomal CLint refers to the capacity of the preparation to metabolise the compound, expressed as a volume cleared per time. A low value points to slow turnover. For orientation: solubility (kinetic) means the concentration staying in solution when a stock, usually in DMSO, is diluted into the medium. A word on the CC50: it is the concentration giving 50% cytotoxicity.

The target of data set [1] is T1, human galectin-3C (Gal-3C, C-terminal CRD of galectin-3) (Homo sapiens, UniProt P17931).
T1 construct: only the C-terminal domain was used (Gal-3C); 6xHis tag with TEV protease site (N, cleaved yes); made in house; host or cells: BL21 Escherichia coli (pET-15b)
The data set can be described thus: Competitive fluorescence polarization assay, Gal-3C. The format is binding. Summed up:
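Competitive fluorescence polarization (anisotropy) with a fluorescent probe; full-length Gal-1 and C-terminal CRD construct of Gal-3. Read after 30–60 min incubation at 25 °C. Kd fitted with Wang's exact cubic competitive model, rmin/rmax fixed from direct binding.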
In general terms: Polarisation of emitted light reports the rotation of a fluorescent probe.

Data set [2] can be described thus: Plasma stability assay, rat plasma. The format is in vitro ADME. Conditions: 37 °C. The protocol: Test compounds (10 μM) were incubated with mouse, rat, or human pooled plasma from 50 donors (Biowest) at 37 °C for 20, 60, and 120 min. Reactions were terminated by adding four volumes of ice-cold methanol, followed by vigorous mixing. Samples were kept at −20 °C for 30 min and then stored at 4 °C overnight. The next day, samples were centrifuged, and supernatants were diluted with four volumes of 30% methanol in water. Zero time points were prepared by adding ice-cold methanol to the compound prior to the addition of plasma. Samples were then analyzed on an Echo MS system (SCIEX) using multiple reaction monitoring (MRM). The only exception was compound 3af, which was analyzed by LC–MS/MS (SCIEX 6500 triple quadrupole) due to its weak ionization in Echo-MS.

Data set [3] in a line: Microsomal stability assay, rat liver microsomes. The class given is in vitro ADME. The conditions noted are these: pooled liver microsomes, pH 7.4, rat liver microsomes 0.5 mg/mL, NADPH. The protocol: Microsomal stability was determined using 0.5 mg/mL of pooled human, mouse, or rat liver microsomes (Thermo Fisher Scientific) in 90 mM TRIS-Cl buffer (pH 7.4) containing 2 mM NADPH and 2 mM MgCl2. Test compounds (10 μM) were added, and the resulting mixture was incubated at 37 °C for 10, 60, 120, and 180 min. The reactions were terminated by the addition of four volumes of ice-cold methanol, followed by vigorous mixing. The samples were left at −20 °C for 30 min and then stored at 4 °C overnight. The next day, samples were centrifuged, and supernatants were diluted with four volumes of 30% methanol in water. Zero time points were prepared by adding ice-cold methanol to the mixture of compounds and cofactors prior to the addition of microsomes. The samples were then analyzed using the Echo-MS system (SCIEX) with MRM transition monitoring, except for compound 3af, which was analyzed by LC–MS/MS as described in the plasma stability assay.
(In general: Liver microsomes are vesicles of endoplasmic reticulum, rich in cytochrome P450 enzymes.)

Data set [4] in a line: Kinetic solubility assay in PBS. The format is physicochemical. Conditions: aqueous buffer, kinetic from dmso stock; PBS at pH 7.4, 100 μM final, 2 h room temperature. The method, then:
The solutions were incubated at room temperature for 2 h and filtered by centrifugation. Filtrates were diluted 100-fold with 50% acetonitrile in water and then analyzed on the Echo-MS system (SCIEX) using MRM transition monitoring, except for compound 3af, which was analyzed by LC–MS/MS as described in the plasma stability assay. Compound concentrations were quantified against calibration curves prepared in the identical matrix as the samples.

A short description of data set [5]: Cytotoxicity assay, Jurkat E6.1. The class given is cell-based. Conditions: human, Jurkat E6.1 cells, viability dye, flow cytometry. The protocol:
(§1) To evaluate in vitro cytotoxicity and support its potential application in inflammatory and fibrotic disease models, the following panel of cell lines, representing the relevant biological systems, was used: HEK293, HepG2, THP1, Jurkat E6.1, and LX2. HEK293, HepG2, and Jurkat E6.1 cells were seeded at 400,000 cells/mL, THP1 cells at 500,000 cells/mL, and LX2 cells at 200,000 cells/mL in 96-well plates (cell culture-treated, VWR) in 100 μL/well. Cells were treated with the tested compounds in a serial dilution (300, 100, 33.3, 11.1, and 3.7 μM) for 24 h. Untreated cells served as negative controls to establish the baseline viability threshold. Cell viability was assessed using a viability dye (Zombie Violet Fixable Viability Kit, BioLegend) following the manufacturer’s instructions and analyzed by flow cytometry (see below).
(§2) Cells or beads from screening assays prepared for flow cytometry were analyzed by the CytoFlex S instrument (Beckman Coulter). Data acquisition was performed using CytExpert software (v2.5, Beckman Coulter). Debris was excluded by forward and side scatter gating, followed by doublet exclusion. Data were analyzed using FlowJo software (v10, BD Biosciences).
(In general: A flow cytometer gives signals particle by particle.)

The nature of data set [6]: Cytotoxicity assay, panel of five human cell lines. The format is cell-based. Conditions: HEK293, HepG2, THP-1, Jurkat E6.1 and LX2 cells; summary in text across panel of five human cell lines. The protocol: as §1, §2

Like-named read-outs stand apart in the source and are kept apart here. Where only a bound is given, the exact number is not on record here.

T1 sequence (P17931 118-248 limits assumed): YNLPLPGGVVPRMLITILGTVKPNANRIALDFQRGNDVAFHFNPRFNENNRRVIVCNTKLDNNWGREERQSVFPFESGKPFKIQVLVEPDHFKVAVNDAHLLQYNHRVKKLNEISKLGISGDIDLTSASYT

For `CC(=O)N(c1cc(C(=O)O)cc2[nH]ccc12)[C@@H]1O[C@H](CO)[C@@H](S[C@@H]2O[C@H](CO)[C@H](O)[C@H](n3cc(-c4cccc(F)c4)nn3)[C@H]2O)[C@H](O)[C@H]1O` [Compound 11, N-[4-S-(3-Deoxy-3-(4-(3-fluorophenyl)-1H-1,2,3-triazol-1-yl)-β-D-galactopyranosyl)-4-thio-β-D-glucopyranosyl]-N-(6-carboxy-1H-indol-4-yl)acetamide], the IC50 in data set [1] (CSV supplement, unrounded mean, read-out: Gal3C_IC50_mean_uM) is 57.7 nM; in data set [1] (four-parameter logistic model, mean ± SD, read-out: IC50 Gal-3C), 58 ± 10 nM. In addition, the Kd turned out to be 5.71 nM in data set [1] (CSV supplement, unrounded mean, read-out: Gal3C_Kd_mean_uM) and 5.7 ± 2 nM in data set [1] (competitive fluorescence polarization, mean ± SD, read-out: Kd Gal-3C). The fraction remaining at 2 h, 10 μM in data set [2] stood at 87 ± 6%. Also, in data set [3], the microsomal CLint at 10 μM is less than 2 µL/min/mg. In data set [4], this compound yielded a kinetic solubility at 2 h greater than 100 µM. Further, the CC50 at 24 h in data set [5] and in data set [6] was greater than 300000 nM in each case.

(Values after publication PMC12670426 (Journal of Medicinal Chemistry, 2025).)
